The values below come from US20220062250A1, “COMBINATION OF A SK2 INHIBITOR AND AN INHIBITOR OF A CHECKPOINT PATHWAY, USES AND PHARMACEUTICAL COMPOSITIONS THEREOF” (Apogee Biotechnology Corporation, priority 2019, published 2022).

Data set [1] deals with LLC tumors. As to the kind of experiment: LLC tumor model, ABC294640 in combination with anti-CTLA4 antibody (Example 9). The data set is classed as in vivo, mice. As to the method: The combined effects of treating tumor-bearing mice with ABC294640 and anti-CTLA41 antibody were examined in the LLC tumor model. Anti-mouse CTLA-4 (catalog number BE0131) antibody was purchased from BioXCell (West Lebanon, N.H.). Mice were injected with 1,000,000 LLC cells suspended in PBS into the right hind flank subcutaneously on Day 0 of the experiment. Mice were randomized On Day 3 of the experiment into the following four treatment groups (n=5/group): Control (vehicle only); ABC294640 alone; anti-CTLA4 antibody alone; and ABC294640 in combination with anti-CTLA4 antibody. ABC294640 was suspended in vehicle (46.7% PEG, 46.7% saline and 6.6% ethanol) and dosed by oral gavage at 50 mg/kg 5 days/week (i.e. days 3-7, 10-14, 17-21, etc.) until sacrifice. Anti-CTLA4 antibody was suspended in dilution buffer (BioXCell, catalog number IP0070) and administered by intraperitoneal (i.p.) injection at a dose of 200 μg/mouse on Days 3, 6, 10, 13, 17 and 20. The combination treatment group mice received antibody and ABC294640 treatments concomitantly on days when antibody was scheduled. Control group mice received oral vehicle and/or sterile PBS i.p. on all days that treated mice received either ABC294640 or antibody. Tumors were measured with digital calipers three times per week and volumes were calculated using the formula, (L×W^2)/2. Mice were euthanized when tumor volumes reached ≥3,000 mm^3. […] Tumors in the Control mice grew progressively after a lag of approximately 7 days. On Day 21, the average tumor volumes for the Control, ABC294640 alone, anti-CTLA4 antibody alone, and combination treatment groups were 4622±548, 3197±914, 3029±675 and 1274±336 mm^3, respectively. […] As directed by the IACUC protocol, each mouse was sacrificed when its tumor volume reached 3,000 mm^3. […] The combination of ABC294640 plus anti-CTLA4 antibody increased median survival to >26 days, and 60% of these mice survived to Day 26.

The subject of data set [2] is TRAMP-C2. As to the kind of experiment: Surface expression of calreticulin by flow cytometry, TRAMP-C2. The class given is cell-based. The note with it: TRAMP-C2 (Prostate); 40 μM ABC294640, 24 hours; relative to DMSO control = 1.0; logarithmic scale. As to the method: (§1) One indicator that tumor cells are undergoing immunogenic cell death (ICD) is increased expression of calreticulin on the surface of the cells. Calreticulin is normally expressed in the endoplasmic reticulum (ER) of cells; however, when cells are treated with an agent that promotes ER stress, calreticulin expression can be observed on the external surface of the cells. Promotion of ER stress is a typical mechanism for inducing ICD, and therefore measuring the surface expression of calreticulin is an established method for determining if a compound causes ICD. The effects of ABC294640, an inhibitor of sphingosine kinase-2, on the surface expression of calreticulin in several different types of tumor cells were examined. […] The cells were then incubated with a fluorescently labeled antibody that selectively binds to calreticulin, washed and then analyzed by flow cytometry to quantify the amount of surface calreticulin on many individual cells. The resulting data is analyzed by determining the geometric mean of the fluorescence intensity for the population of cells using algorithms well known in the field of flow cytometry. […] The geometric mean of the fluorescence intensity for cell samples treated with DMSO was expressed as 1.0 and the data for cell samples treated with ABC294640 were expressed relative to the DMSO control. […]
In general terms: A flow cytometer gives signals particle by particle.

In data set [3] the test system is B16-F10. As to the kind of experiment: Surface expression of calreticulin by flow cytometry, B16-F10. The data set is classed as cell-based, murine. The note with it: B16-F10 (Melanoma); 40 μM ABC294640, 24 hours; relative to DMSO control = 1.0; logarithmic scale. The method, then:
as §1

For data set [4], the system named is B16 tumors. Kind of data set: B16 tumor model, ABC294640 in combination with anti-PD-L1 antibody (Example 10). The data set is classed as in vivo, mice. The note with it: B16 tumors ≥300 mm^3 at randomization (Day 1); ABC294640 50 mg/kg oral gavage 5 days/week; anti-PD-L1 antibody 200 μg/mouse i.p. Days 1, 3, 5 and 7; Vehicle 8.5. As to the method:
The combined effects of treating tumor-bearing mice with ABC294640 and anti-PD-L1 antibody were examined in the B16 tumor model. Anti-mouse PD-L1 (catalog number BE0101) antibody was purchased from BioXCell (West Lebanon, N.H.). Mice were injected with 100,000 B16 cells suspended in PBS into the right hind flank subcutaneously on Day 0 of the experiment. When the tumor reached a volume of ≥300 mm^3, mice were randomized into the following four treatment groups (n=5-6/group): Control (vehicle only); ABC294640 alone; anti-PD-L1 antibody alone; and ABC294640 in combination with anti-PD-L1 antibody. The day of randomization is noted as Day 1 of the experiment for each mouse. ABC294640 was suspended in vehicle (46.7% PEG, 46.7% saline and 6.6% ethanol) and dosed by oral gavage at 50 mg/kg 5 days/week until sacrifice. Anti-PD-L1 antibody was suspended in dilution buffer (BioXCell, catalog number IP0070) and administered by intraperitoneal (i.p.) injection at a dose of 200 μg/mouse on Days 1, 3, 5 and 7. The combination treatment group mice received antibody and ABC294640 treatments concomitantly on days when antibody was scheduled. Control group mice received oral vehicle and/or sterile PBS i.p. on all days that treated mice received either ABC294640 or antibody. Tumors were measured with digital calipers three times per week and volumes were calculated using the formula, (L×W^2)/2. […]

For data set [5], the system named is Lewis Lung carcinoma. Kind of data set: Surface expression of calreticulin by flow cytometry, Lewis Lung carcinoma. The data set is classed as cell-based, murine. The conditions noted are these: 40 μM ABC294640, 24 hours, relative to DMSO control = 1.0, logarithmic scale. The method, then:
as §1

The test system of data set [6] is B16 tumors. Kind of data set: B16 tumor model, ABC294640 in combination with anti-PD-1 antibody (Example 8). The data set is classed as in vivo, C57BL/6 mice. The method, then:
Agents that induce ICD may enhance the antitumor activity of checkpoint antibodies. […] Anti-mouse PD-1 (Catalog number BE0146) antibody was purchased from BioXCell (West Lebanon, N.H.). C57BL/6 mice were injected with 100,000 B16 cells suspended in PBS into the right hind flank subcutaneously on Day 0 of the experiment. Mice were randomized on Day 3 of the experiment into the following four treatment groups (n=10/group): Control (vehicle only); ABC294640 alone; anti-PD-1 antibody alone; and ABC294640 in combination with anti-PD-1 antibody. ABC294640 was suspended in vehicle (46.7% PEG, 46.7% saline and 6.6% ethanol) and dosed by oral gavage at 50 mg/kg 5 days/week (i.e. days 3-7, 10-14, 17-21, etc.) until sacrifice. Anti-PD-1 antibody was suspended in sterile PBS, and administered by intraperitoneal (i.p.) injection at a dose of 200 μg/mouse on Days 3, 6 and 10. The combination treatment group mice received antibody and ABC294640 treatments concomitantly on days when antibody was scheduled. Control group mice received oral vehicle and/or sterile PBS i.p. on all days that treated mice received either ABC294640 or antibody. Tumors were measured with digital calipers three times per week and volumes were calculated using the formula, (L×W^2)/2. Mice were euthanized when tumor volumes reached ≥3,000 mm^3. […] Tumors in the Control mice grew very aggressively after a lag of approximately 10 days. On Day 19, the average tumor volumes for the Control, ABC294640 alone, anti-PD-1 antibody alone, and combination treatment groups were 1702±373, 892±364, 783±265 and 190±114 mm^3, respectively. […] As directed by the IACUC protocol, each mouse was sacrificed when its tumor volume reached 3,000 mm^3. […] Treatment with ABC294640 alone provided a median survival of 24 days and 30% of the mice were alive on Day 56 when the experiment was terminated (p=0.009).

Data set [7] has as its system Neuro-2a. Kind of data set: Surface expression of calreticulin by flow cytometry, Neuro-2a. The class given is cell-based, murine. The conditions noted are these: Neuro-2a (Neuroblastoma); 40 μM ABC294640, 24 hours; relative to DMSO control = 1.0; logarithmic scale. The method, then: as §1
The subject of data set [8] is PAN02. As to the kind of experiment: Surface expression of calreticulin by flow cytometry, PAN02. The class given is cell-based. The conditions noted are these: PAN02 (Pancreas); 40 μM ABC294640, 24 hours; relative to DMSO control = 1.0; logarithmic scale (2.0 = 10-fold increase). As to the method:
as §1

For data set [9], the system named is E0771. As to the kind of experiment: Surface expression of calreticulin by flow cytometry, E0771. The data set is classed as cell-based. The note with it: E0771 (Breast); 40 μM ABC294640, 24 hours; relative to DMSO control = 1.0; logarithmic scale. As to the method:
as §1

The conditions of data set [10]: given intravenously every 2 weeks; cited from earlier work.

As for `O=C(NCc1ccncc1)C12CC3CC(C1)CC(c1ccc(Cl)cc1)(C3)C2` [ABC294640, 3-(4-chlorophenyl)-adamantane-1-carboxylic acid (pyridin-4-ylmethyl)amide], the median survival in data set [1] (LLC tumor-bearing mice, sacrificed at tumor volume 3,000 mm^3, Control 19 days) is 22 days; in [4], 10 days; in [6] (B16 tumor-bearing mice, sacrificed at tumor volume 3,000 mm^3, Control 21 days) it was 24 days. Besides, the average tumor volume in data set [1] (LLC tumors, Day 21, ABC294640 50 mg/kg oral gavage 5 days/week, anti-CTLA4 antibody 200 μg/mouse i.p. Days 3, 6, 10, 13, 17 and 20, Control 4622±548) is 3197±914 mm^3; in data set [6] (B16 tumors, Day 19, ABC294640 50 mg/kg oral gavage 5 days/week, anti-PD-1 antibody 200 μg/mouse i.p. Days 3, 6 and 10, Control 1702±373), 892±364 mm^3. In addition, the “growth of LLC lung tumors (FIG. 8)” value in data set [1] (in words) is “partially inhibited”. The “survival of mice bearing LLC tumors (FIG. 9)” value in data set [1] (in words) is “slightly prolonged”. Moreover, the “Surface calreticulin expression (Geometric mean of fluorescence intensity)” value is given as 3.64 in [2]; 2.7 in data set [3]; 3.0 in data set [5]; 3.0 in data set [7]; 2.31 in [8]; 1.46 in data set [9]. Also, the “mice alive on Day 56” value in [6] (B16 tumor-bearing mice, experiment terminated Day 56, all Control animals sacrificed by Day 29) turned out to be 30%. Moreover, the “growth of B16 melanoma tumors (FIG. 6)” value in data set [6] (in words) is “partially inhibited”. The “survival of mice bearing B16 melanoma tumors (FIG. 7)” value in data set [6] (in words) is given as “slightly prolonged”.
Regarding nivolumab, in data set [10], the tolerated dose entry was “up to 10 mg/kg”.
